Laboratory results: ChEMBL document CHEMBL1201862, “PubChem BioAssay data set” (2004)
Where a name gives a salt, the structure may show the parent alone. Activity calls are given as the source filed them. For most assays here, no stated cut-off is given here; in the data, active = IC50 of 5 µM or less and inactive = more.

Columns and labels:
[1] = fibronectin fibrillogenesis inhibitors in fibroblasts, dose response, AH1F cells, Alexa488-fibronectin fluorescence, cherry-pick, set 2 (AID 1117283); assay type: functional, cell-based
[2] = molecular target: G-protein coupled receptor 183 (Homo sapiens, UniProt P32249); assay: SAR confirmation of small molecule antagonists of the EBI2 receptor via a luminescent beta-arrestin assa.; assay type: functional
[3] = Dose-response inhibition of insulin secretion in a rat insulinoma line at 5 mM glucose (AID 1117331); assay type: functional, cell-based; conditions: INS-1E
[4] = Concentration-dependent survival of SW480 colon cancer line, luminescence detection with CellTiter-Glo, half-maximal inhibitory concentration (AID 1117338); assay type: functional
[5] = RKO cell viability reduction, dose response, CellTiter-Glo luminescence (AID 1117322); assay type: functional
[6] = cytotoxicity toward HCT116 cells – cell-based, CellTiter-Glo luminescence, IC50, dose response (AID 1117332); assay type: functional; conditions: HCT-116
[7] = SNU-C1 cell viability reduction, dose response, CellTiter-Glo luminescence (AID 1117323); assay type: functional, cell-based
[8] = half-maximal inhibitory concentration for glucagon-like peptide-1 release, STC-1 cell line, dose-response (AID 1117345); assay type: functional, cell-based
[9] = cytotoxicity toward Colo320 cells – cell-based, CellTiter-Glo luminescence, IC50, dose response (AID 1117334); assay type: functional; conditions: COLO 320
[10] = cytotoxicity toward HT-29 cells – cell-based, CellTiter-Glo luminescence, IC50, dose response (AID 1117330); assay type: functional
[11] = CellTiter-Glo luminescent dose response of DLD-1 viability loss (AID 1117352); assay type: functional
[12] = HCT116 cell viability decrease, GSK3B pretreatment – CellTiter-Glo, IC50, dose response (AID 1117339); assay type: functional; conditions: HCT-116
[13] = Glucagon-like peptide 1 release potency, NCI-H716 cell line, dose-response, half-maximal inhibitory concentration (AID 1117344); assay type: functional, cell-based
[14] = HeLa 2N DNA content increase, dose response, cell-based, IC50 (AID 1117349); assay type: functional
[15] = HeLa 4N DNA content increase, dose response, cell-based, IC50 (AID 1117351); assay type: functional

Chain of G-protein coupled receptor 183 (P32249 whole entry): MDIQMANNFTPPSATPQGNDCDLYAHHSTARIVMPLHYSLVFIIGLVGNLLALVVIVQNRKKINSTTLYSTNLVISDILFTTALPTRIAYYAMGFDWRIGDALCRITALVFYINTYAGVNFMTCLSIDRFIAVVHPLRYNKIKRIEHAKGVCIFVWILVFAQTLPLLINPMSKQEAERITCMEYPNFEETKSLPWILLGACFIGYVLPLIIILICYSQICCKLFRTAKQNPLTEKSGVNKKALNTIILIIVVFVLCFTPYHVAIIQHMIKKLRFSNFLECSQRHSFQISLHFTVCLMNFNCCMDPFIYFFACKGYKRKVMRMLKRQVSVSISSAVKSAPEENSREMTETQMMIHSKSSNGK

In the case of C[C@@H]1CN([C@H](C)CO)C(=O)c2cc(-c3ccccc3)cnc2O[C@@H]1CN(C)C(=O)c1cccc(F)c1, the AC50 [1] is reported as > 70 µM (inactive).
For CCC(C)N1CCN(C(=O)/C=C/c2ccc(Br)cc2)CC1 (stereo unspecified), the IC50 [2] was 0.00223 µM (active).
For O=C(c1ccc(Br)cc1)N1CCN(Cc2ccc(Cl)cc2)CC1, the IC50 [2] was 0.478 µM (active).
For CCN(CC)CCOC(=O)C(C)(c1ccccc1)c1ccccc1 [APROFENE], the IC50 [3] was > 11.1 µM (inactive).
With COCC(=O)O[C@]1(CCN(C)CCCc2nc3ccccc3[nH]2)CCc2cc(F)ccc2[C@@H]1C(C)C [MIBEFRADIL DIHYDROCHLORIDE] the IC50 [4] was 4.54 µM (active), the IC50 [5] was 6.72 µM (inactive) and the IC50 [6] was 12.4 µM (inactive). The IC50 [7] was 5.44 µM (inactive), the IC50 [8] was 8.24 µM (inactive) and the IC50 [9] was 10.5 µM (inactive). For the same molecule, the IC50 [10] was 3.08 µM (active), the IC50 [11] was 7.26 µM (inactive) and the IC50 [12] was 5.33 µM (inactive). For the same molecule, the IC50 [13] was > 40 µM (inactive).
In the case of CCN(CC)CCOc1ccc(C(O)(Cc2ccc(Cl)cc2)c2ccc(C)cc2)cc1 (stereo unspecified) [TRIPARANOL], the IC50 [14] is reported as > 10 µM (inactive), the IC50 [4] is reported as 3.76 µM (active) and the IC50 [5] is reported as 0.299 µM (active). The IC50 [6] was > 20 µM (inactive), the IC50 [7] was 2.46 µM (active) and the IC50 [8] was > 40 µM (inactive). For the same molecule, the IC50 [9] was 8.99 µM (inactive), the IC50 [15] was > 10 µM (inactive) and the IC50 [10] was 3.17 µM (active). For the same molecule, the IC50 [11] was > 20 µM (inactive), the IC50 [12] was 3.74 µM (active) and the IC50 [13] was 36.1 µM (inactive).
